Measurements: paper PMC12195777, “Improved Bioavailability of Stilbenes from Cajanus cajan (L.) Millsp. Leaves Achieved by Hydroxypropyl-β-Cyclodextrin Inclusion: Preparation, Characterization and Pharmacokinetic Assessment” (Molecules, 2025)

Legend:
[1] = In vivo pharmacokinetic study in rats after oral administration (UPLC-QqQ-MS/MS of plasma); design: species or system SD rats; details: for AUC(0-inf) / AUC(0-t) / Cmax / Tmax / half-life: male, SD, rat, plasma, n = 6; for relative bioavailability / time at which peak plasma concentration (Cmax) was reached: oral; for relative bioavailability: from the inclusion complex, using CCMLE as a reference; for time at which peak plasma concentration (Cmax) was reached: post-administration (Figure 6)
Experimental: Healthy male SD rats weighing 200 ± 20 g were housed in a specific pathogen-free (SPF) facility under controlled conditions (24 ± 1 °C, 50 ± 10% relative humidity) with a 12 h light/dark cycle. The animals were free to access purified water and a standard laboratory diet for a 1-week acclimatization period. After acclimatization, the rats were randomly divided into three groups (n = 6 per group): the control group (con), CCMLE group and stilbene/HP-β-CD inclusion complex group. The CCMLE group received an oral dose of 232 mg/kg CCMLE, while the stilbene/HP-β-CD inclusion complex group received 2.1 g/kg of the inclusion complex by oral gavage, with both containing the same amount of stilbenes. All animal experiments were performed in accordance with the National Institutes of Health Guide for the Care and Use of Laboratory Animals (NIH Publication No. 85-23, revised in 1996). The study protocol was approved by the Animal Care and Use Committee of Zhejiang University of Technology (approval number MGS20231227194).
Blood samples (approximately 300 μL) were collected via the retro-orbital venous plexus before dosing and at the following post-dose times of 5 min, 15 min, 30 min, 1 h, 1.5 h, 2 h, 4 h, 6 h, 8 h, 12 h and 24 h. Each sample was placed in an EDTA anticoagulation tube to prevent coagulation. The tubes were then centrifuged at 3500 rpm for 10 min. The upper layer of supernatant (plasma) was carefully collected and stored at −80 °C until further analysis.
The plasma samples stored at −80 °C were thawed at room temperature prior to processing. For each analysis, 100 μL of the plasma sample was accurately transferred into a centrifuge tube, followed by the addition of 40 μL of a chloramphenicol (CHL) solution (1 mg/mL) used as an internal standard (IS) and 260 μL methanol. The mixture was vortexed for 3 min to ensure thorough homogenisation and then centrifuged at 13,000 rpm for 10 min at 4 °C to precipitate proteins and other insoluble components. For analysis, 10 μL of the supernatant was injected into a ultra-high-performance liquid chromatography–triple-quadrupole tandem mass spectrometry (UPLC-QqQ-MS/MS) system.
The bioavailabilities of three stilbenes (LLC, CSA and MPA) in CCMLE and the stilbene/HP-β-CD inclusion complex were analyzed using a Waters Xevo TQ-S micro-mass spectrometry system (Waters, Milford, MA, USA) coupled to a Waters H-Class UPLC system. Chromatographic separation was performed on a Waters H-Class UPLC system equipped with a Welch Ultimate® UHPLC LP-C18 column (Waters, Milford, MA, USA, 2.1 × 50 mm, 1.8 μm) at 30 °C. The injection volume was 10 μL. The mobile phase consisted of ultrapure water (A) and acetonitrile (B) with a flow rate of 0.3 mL/min and an elution gradient programme as follows: 0–0.2 min, 90% A; 0.2–1.5 min, 90–5% A; 1.5–3.5 min, 5% A; and 3.5–5 min, 5–90% A.
Mass spectrometric analysis was performed on a Waters Xevo TQ-S micro system using electrospray ionization in the negative mode (ESI^−). The capillary voltage was 2.71 kV, and the ion source temperature was 150 °C. Nitrogen was used as the desolventizing gas and the cone pore gas, and argon was used as the collision gas. Data acquisition was performed in the multiple-reaction-monitoring (MRM) mode for all analytes.
The relative bioavailability of CSA, LLC and MPA in the stilbene/HP-β-CD inclusion complex was calculated using Equation (8), with CCMLE used as a reference:(8) Frel=AUCstilbenes/HP−β−CD/AUCCCMLE·DCCMLE/Dstilbenes/HP−β−CD·100% where AUCstilbenes/HP-β-CD and AUCCCMLE represent the areas under the blood concentration–time curve, and Dstilbenes/HP-β-CD and DCCMLE represent the orally administered dose (mg/kg).
DAS 2.0 software was used to calculate the pharmacokinetic parameters, including the area under the plasma concentration–time curve (AUC), maximum plasma concentration (Cmax), time to reach Cmax (tmax) and elimination half-life (t1/2), using a non-compartmental model. […]

[2] = Tissue distribution study in rats after oral administration; format: in vivo; details: oral CCMLE or inclusion complex, heart, liver, spleen, lungs, kidneys, brain
Experimental: The tissue distribution study followed the same experimental grouping and dosing protocols described in Section 3.12. Thirty minutes after dosing, the rats were euthanized and their tissues (including their heart, liver, spleen, lungs, kidneys and brain) were immediately collected. Each tissue was rinsed with a 0.9% NaCl solution, gently dried with filter paper, weighed and stored at −80 °C until analysis.
For sample preparation, 0.2 g of each tissue was homogenized in 0.5 mL of a 0.9% NaCl solution using a high-throughput tissue grinder (Jingxin, Shanghai, China). Next, 300 μL of the tissue homogenate was mixed with 50 μL of a CHL solution and 850 μL of methanol, vortexed for 3 min and centrifuged at 13,000 rpm for 10 min at 4 °C. Then 10 μL of the supernatant was injected into the UPLC-QqQ-MS/MS system for analysis.

[3] = quoted without reference; cited from earlier work
[4] = oral stilbene/HP-β-CD inclusion complex 2.1 g/kg

Structure (SMILES) | AUC(0-inf) ([1]; oral CCMLE 232 mg/kg) | AUC(0-t) ([1]; oral CCMLE 232 mg/kg) | Cmax ([1]; oral CCMLE 232 mg/kg) | Tmax ([1]; oral CCMLE 232 mg/kg) | half-life ([1]; oral CCMLE 232 mg/kg) | AUC(0-inf) [1, 4] | AUC(0-t) [1, 4] | Cmax [1, 4] | Tmax [1, 4] | half-life [1, 4] | relative bioavailability [1] | time at which peak plasma concentration (Cmax) was reached [1] | tissue-specific accumulation [2] | pKa of phenolic hydroxyl groups [3]
COc1cc(/C=C/c2ccccc2)c(C(=O)O)c(O)c1CC=C(C)C [CSA, cajaninstilbene acid] | 170 ± 66 ng·h/mL | 120 ± 41 ng·h/mL | 48 ng/mL | 0.3 ± 0.1 h | 11 ± 5.6 h | 470 ± 160 ng·h/mL | 240 ± 82 ng·h/mL | 140 ± 60 ng/mL | 0.3 ± 0.1 h | 13 ± 9.9 h | 198% | 15 min | predominately concentrated in the liver | 
COc1cc(O)cc(/C=C/c2ccccc2)c1CC=C(C)C [LLC, longistyle C] | 10 ± 9.3 ng·h/mL | 5.8 ± 2.9 ng·h/mL | 0.7 ± 0.5 ng/mL | 0.3 ± 0.1 h | 14 ± 8.7 h | 12 ± 6.7 ng·h/mL | 10 ± 6.7 ng·h/mL | 4.5 ± 2 ng/mL | 0.5 h | 6 h | 177% |  | higher concentrations in the heart and lungs | 
COc1cc(O)c(C(=O)O)c(/C=C/c2ccccc2)c1 [MPA, 4-O-methylpinosylvic acid] | 580 ± 170 ng·h/mL | 560 ± 160 ng·h/mL | 230 ± 60 ng/mL | 0.4 ± 0.3 h | 5.5 ± 1.7 h | 803 ± 140 ng·h/mL | 740 ± 100 ng·h/mL | 440 ± 130 ng/mL | 0.3 ± 0.1 h | 9 ± 4.1 h | 131% | 15 min | relatively higher levels in the liver, lungs and kidneys | 
Oc1ccc(/C=C/c2cc(O)cc(O)c2)cc1 [resveratrol] |  |  |  |  |  |  |  |  |  |  |  |  |  | 9.5–10
